Measured values as given in patent US9169260B2 (MERCK SHARP & DOHME CORP., priority 2011, dated 2015).

Molecular target: GST tagged IRAK-4 (Homo sapiens (Human), UniProt Q9NWZ3)
Assay: IRAK-4 Kinase Assay (IMAP fluorescence polarization)
Assay type: biochemical
Conditions: 100 μM ATP, 30 minutes at 25° C.
How it was run: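 Activity was read by IMAP fluorescence polarization, where phosphopeptide binding to M(III) nanoparticles raises FP. The 30-minute, 25° C reaction used 100 μM ATP, 100 nM RP7030 substrate and 0.5 nM GST-IRAK-4 in pH 7.2 Tris buffer with MgCl2, DTT and Tween 20.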

Chain of GST tagged IRAK-4 (Q9NWZ3 whole entry): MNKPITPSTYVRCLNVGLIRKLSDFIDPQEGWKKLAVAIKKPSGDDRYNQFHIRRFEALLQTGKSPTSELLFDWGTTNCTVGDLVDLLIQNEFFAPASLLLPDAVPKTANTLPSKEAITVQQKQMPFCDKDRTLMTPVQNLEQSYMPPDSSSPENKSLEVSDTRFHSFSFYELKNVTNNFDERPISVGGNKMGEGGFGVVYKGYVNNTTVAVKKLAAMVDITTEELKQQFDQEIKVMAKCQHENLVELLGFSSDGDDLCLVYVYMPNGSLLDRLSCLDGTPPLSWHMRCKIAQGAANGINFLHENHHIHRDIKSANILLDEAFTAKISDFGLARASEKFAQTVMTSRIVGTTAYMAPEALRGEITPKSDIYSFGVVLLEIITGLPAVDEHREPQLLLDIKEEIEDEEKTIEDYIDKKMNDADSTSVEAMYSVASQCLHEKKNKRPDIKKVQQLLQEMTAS

Row | Structure (SMILES) | IC50 (μM) [µM] | IC50 [µM]
1 | Cc1ccc(-n2nc(-c3ccc(S(=O)(=O)C(C)C)cc3)cc2NC(=O)c2cnn3cccnc23)cc1 [Example 341, N-[3-{4-[(1-methylethyl)sulfonyl]phenyl}-1-(4-methylphenyl)-1H-pyrazol-5-yl]pyrazolo[1,5-a]pyrimidine-3-carboxamide] | < 1 | 
2 | O=C(Nc1cc(C2CN(C3CCC3)C2)nn1-c1ccc(C2CC2)cc1F)c1cnn2cccnc12 [Example 89, N-(3-(1-cyclobutylazetidin-3-yl)-1-(4-cyclopropyl-2-fluorophenyl)-1H-pyrazol-5-yl)pyrazolo[1,5-a]pyrimidine-3-carboxamide] |  | < 0.1
3 | Cc1ccc(-n2nc(C3CCN(C4CCC4)CC3)cc2NC(=O)c2cnn3cccnc23)nc1 [Example 274, N-[3-(1-cyclobutylpiperidin-4-yl)-1-(5-methylpyridin-2-yl)-1H-pyrazol-5-yl]pyrazolo[1,5-a]pyrimidine-3-carboxamide] |  | < 0.1
4 | CCCN1CCC(c2cc(NC(=O)c3cnn4cccnc34)n(-c3ccc(C)cc3)n2)CC1 [Example 220, N-[1-(4-methylphenyl)-3-(1-propylpiperidin-4-yl)-1H-pyrazol-5-yl]pyrazolo[1,5-a]pyrimidine-3-carboxamide] |  | < 0.1
5 | Cc1ccc(-n2nc(C3CCN(S(=O)(=O)c4sc(C)nc4C)CC3)cc2NC(=O)c2cnn3cccnc23)cc1 [Example 364, N-[3-{1-[(2,4-dimethyl-1,3-thiazol-5-yl)sulfonyl]piperidin-4-yl}-1-(4-methylphenyl)-1H-pyrazol-5-yl]pyrazolo[1,5-a]pyrimidine-3-carboxamide] |  | < 0.1
6 | Cc1ccc(-n2nc(C3CCN(C4CCC(C#N)CC4)CC3)cc2NC(=O)c2cnn3cccnc23)nc1 (centres unmarked) [Example 265, N-{3-[1-(4-cyanocyclohexyl)piperidin-4-yl]-1-(5-methylpyridin-2-yl)-1H-pyrazol-5-yl}pyrazolo[1,5-a]pyrimidine-3-carboxamide] |  | < 0.1
7 | Cc1ccc(-n2nc(-c3ccnc(N)c3)cc2NC(=O)c2cnn3cccnc23)cc1 [Example 355, N-[3-(2-aminopyridin-4-yl)-1-(4-methylphenyl)-1H-pyrazol-5-yl]pyrazolo[1,5-a]pyrimidine-3-carboxamide] |  | < 0.1
8 | CS(=O)(=O)N1CCC(c2cc(NC(=O)c3cnn4cccnc34)n(-c3ccc(C4CC4)cn3)n2)CC1 [Example 149, N-(1-(5-cyclopropylpyridin-2-yl)-3-(1-(methylsulfonyl)piperidin-4-yl)-1H-pyrazol-5-yl)pyrazolo[1,5-a]pyrimidine-3-carboxamide] |  | < 0.1
9 | COc1ccc(-n2nc(C3CCN(C(=O)C4CC4)CC3)cc2NC(=O)c2cnn3cccnc23)cc1 [Example 33, N-(3-(1-(cyclopropanecarbonyl)piperidin-4-yl)-1-(4-methoxyphenyl)-1H-pyrazol-5-yl)pyrazolo[1,5-a]pyrimidine-3-carboxamide] | < 1 | 
10 | Cc1ccc(-n2nc(C3CCN(CC(C)C)CC3)cc2NC(=O)c2cnn3cccnc23)cc1 [Example 219, N-{1-(4-methylphenyl)-3-[1-(2-methylpropyl)piperidin-4-yl]-1H-pyrazol-5-yl}pyrazolo[1,5-a]pyrimidine-3-carboxamide] |  | < 0.1
11 | O=C(Nc1cc(C2CCN(S(=O)(=O)C3CC3)CC2)nn1-c1ccc(OC(F)(F)F)cc1)c1cnn2cccnc12 [Example 27, N-(3-(1-(cyclopropylsulfonyl)piperidin-4-yl)-1-(4-(trifluoromethoxy)phenyl)-1H-pyrazol-5-yl)pyrazolo[1,5-a]pyrimidine-3-carboxamide] | > 1 | 
12 | Cc1ccc(-n2nc(C3CCN(S(C)(=O)=O)CC3)cc2NC(=O)c2cnn3cccnc23)nc1C [Example 174, N-(1-(5,6-dimethylpyridin-2-yl)-3-(1-(methylsulfonyl)piperidin-4-yl)-1H-pyrazol-5-yl)pyrazolo[1,5-a]pyrimidine-3-carboxamide] | < 1 | 
13 | Cc1ccc(-n2nc(C3CCS(=O)(=O)CC3)cc2NC(=O)c2cnn3cccnc23)cc1 [Example 98, N-(3-(1,1-dioxidotetrahydro-2H-thiopyran-4-yl)-1-(p-tolyl)-1H-pyrazol-5-yl)pyrazolo[1,5-a]pyrimidine-3-carboxamide] | < 1 | 
14 | O=C(Nc1cc(C2CCN(CC(F)(F)F)CC2)nn1-c1ccc(C2CC2)cc1F)c1cnn2cccnc12 [Example 76, N-(1-(4-cyclopropyl-2-fluorophenyl)-3-(1-(2,2,2-trifluoroethyl)piperidin-4-yl)-1H-pyrazol-5-yl)pyrazolo[1,5-a]pyrimidine-3-carboxamide] | < 1 | 
15 | Cc1ccc(-n2nc(C3CCNCC3)cc2NC(=O)c2cnn3cccnc23)c(Cl)c1 [Example 65, N-(1-(2-chloro-4-methylphenyl)-3-(piperidin-4-yl)-1H-pyrazol-5-yl)pyrazolo[1,5-a]pyrimidine-3-carboxamide] | < 1 | 
16 | Cc1ccc(-n2nc(C3CN(Cc4cncnc4)C3)cc2NC(=O)c2cnn3cccnc23)cc1 [Example 310, N-{1-(4-methylphenyl)-3-[1-(pyrimidin-5-ylmethyl)azetidin-3-yl]-1H-pyrazol-5-yl}pyrazolo[1,5-a]pyrimidine-3-carboxamide] | < 1 | 

Row | Structure (SMILES) | IC50 (μM) [µM] | IC50 [µM]
17 | Cc1ccc(-n2nc(C3=CCNCC3)cc2NC(=O)c2cnn3cccnc23)cc1 [Example 138, N-(3-(1,2,3,6-tetrahydropyridin-4-yl)-1-(p-tolyl)-1H-pyrazol-5-yl)pyrazolo[1,5-a]pyrimidine-3-carboxamide] |  | < 0.1
18 | Cc1ccc(-n2nc(C3CCN(C4CCN(C)CC4)CC3)cc2NC(=O)c2cnn3cccnc23)nc1 [Example 275, N-[3-(1′-methyl-1,4′-bipiperidin-4-yl)-1-(5-methylpyridin-2-yl)-1H-pyrazol-5-yl]pyrazolo[1,5-a]pyrimidine-3-carboxamide] |  | < 0.1
19 | Cc1ccc(-n2nc(C3CCN(C4CCC5(CCC(=O)N5)CC4)CC3)cc2NC(=O)c2cnn3cccnc23)cc1 (centres unmarked) [Example 255, N-{1-(4-methylphenyl)-3-[1-(2-oxo-1-azaspiro[4.5]dec-8-yl)piperidin-4-yl]-1H-pyrazol-5-yl}pyrazolo[1,5-a]pyrimidine-3-carboxamide] |  | < 0.1
20 | Cc1ccc(-n2nc(-c3ccncc3)cc2NC(=O)c2cnn3cccnc23)cc1 [Example 125, N-(3-(pyridin-4-yl)-1-(p-tolyl)-1H-pyrazol-5-yl)pyrazolo[1,5-a]pyrimidine-3-carboxamide] |  | < 0.1
21 | CS(=O)(=O)N1CCC(c2cc(NC(=O)c3cnn4cccnc34)n(-c3ccc(F)cc3F)n2)CC1 [Example 28] | < 1 | 
22 | Cc1ccc(-n2nc(C3CCNCC3)cc2NC(=O)c2cnn3cc(Br)cnc23)cc1 [Example 107, 6-bromo-N-(3-(piperidin-4-yl)-1-(p-tolyl)-1H-pyrazol-5-yl)pyrazolo[1,5-a]pyrimidine-3-carboxamide] | < 1 | 
23 | CCCN1CCC(c2cc(NC(=O)c3cnn4cccnc34)n(-c3ccc(C)cn3)n2)CC1 [Example 280, N-[1-(5-methylpyridin-2-yl)-3-(1-propylpiperidin-4-yl)-1H-pyrazol-5-yl]pyrazolo[1,5-a]pyrimidine-3-carboxamide] |  | < 0.1
24 | Cc1ccc(-n2nc(C3CCN(Cc4cncs4)CC3)cc2NC(=O)c2cnn3cccnc23)cc1 [Example 229, N-{1-(4-methylphenyl)-3-[1-(1,3-thiazol-5-ylmethyl)piperidin-4-yl]-1H-pyrazol-5-yl}pyrazolo[1,5-a]pyrimidine-3-carboxamide] |  | < 0.1
25 | CNS(=O)(=O)c1ccc(-c2cc(NC(=O)c3cnn4cccnc34)n(-c3ccc(C4CC4)cn3)n2)cc1 [Example 151, N-(1-(5-cyclopropylpyridin-2-yl)-3-(4-(N-methylsulfamoyl)phenyl)-1H-pyrazol-5-yl)pyrazolo[1,5-a]pyrimidine-3-carboxamide] |  | < 0.1
26 | O=C(Nc1cc(C2CCNCC2)nn1-c1ccc(OC(F)(F)F)cc1)c1cnn2cccnc12 [Example 13, N-(3-(piperidin-4-yl)-1-(4-(trifluoromethoxy)phenyl)-1H-pyrazol-5-yl)pyrazolo[1,5-a]pyrimidine-3-carboxamide] | < 1 | 
27 | Cc1ccc(-n2nc(C3CN(Cc4cn[nH]c4)C3)cc2NC(=O)c2cnn3cccnc23)cc1 [Example 305, N-{1-(4-methylphenyl)-3-[1-(1H-pyrazol-4-ylmethyl)azetidin-3-yl]-1H-pyrazol-5-yl}pyrazolo[1,5-a]pyrimidine-3-carboxamide] |  | < 0.1
28 | Cc1ccc(-n2nc(C3CCN(C4CC(N(C)C)C4)CC3)cc2NC(=O)c2cnn3cccnc23)nc1 (centres unmarked) [Example 269, N-[3-{1-[3-(dimethylamino)cyclobutyl]piperidin-4-yl}-1-(5-methylpyridin-2-yl)-1H-pyrazol-5-yl]pyrazolo[1,5-a]pyrimidine-3-carboxamide] |  | < 0.1
29 | Cc1ccc(-n2nc(C3CCN(C4CN(C(=O)NC(C)C)C4)CC3)cc2NC(=O)c2cnn3cccnc23)cc1 [Example 235, N-[3-(1-{1-[(1-methylethyl)carbamoyl]azetidin-3-yl}piperidin-4-yl)-1-(4-methylphenyl)-1H-pyrazol-5-yl]pyrazolo[1,5-a]pyrimidine-3-carboxamide] | < 1 | 
30 | CCS(=O)(=O)c1ccc(-c2cc(NC(=O)c3cnn4cccnc34)n(-c3ccc(C)cc3)n2)cc1 [Example 352, N-{3-[4-(ethylsulfonyl)phenyl]-1-(4-methylphenyl)-1H-pyrazol-5-yl}pyrazolo[1,5-a]pyrimidine-3-carboxamide] |  | < 0.1
31 | Cc1ccc(-n2nc(C3CCC(C(=O)N(C)C)CC3)cc2NC(=O)c2cnn3cccnc23)cc1 (centres unmarked) [Example 96, N-(3-(4-(dimethylcarbamoyl)cyclohexyl)-1-(p-tolyl)-1H-pyrazol-5-yl)pyrazolo[1,5-a]pyrimidine-3-carboxamide] |  | < 0.1
32 | Cc1ccc(-n2nc(C3CCN(CC4CC4)CC3)cc2NC(=O)c2cnn3cccnc23)nc1 [Example 281, N-{3-[1-(cyclopropylmethyl)piperidin-4-yl]-1-(5-methylpyridin-2-yl)-1H-pyrazol-5-yl}pyrazolo[1,5-a]pyrimidine-3-carboxamide] |  | < 0.1
